Source: ChEMBL document CHEMBL3045111, “Synthesis and herbicidal activities of novel 3-(substituted benzyloxy or phenoxy)-6-methyl-4-(3-trifluoromethylphenyl)pyridazine derivatives” (2012)
Active and inactive are the calls of the source. No cut-off for these calls is given here.

Legend:
[1] = test system: Spirodela polyrhiza; test: Bleaching herbicidal activity in Spirodela polyrhiza fronds cultured in compound-containing in medium assessed as chlorophyll inhibition at 10 ug/ml after 7 days; assay type: functional; conditions: 168 h
[2] = test system: Amaranthus retroflexus; test: Post-emergence herbicidal activity against one-leaf stage Amaranthus retroflexus under greenhouse condition at 75 g /ha measured after 24 days by spray method; assay type: functional; conditions: 576 h, read-out: GI
[3] = test system: Brassica rapa subsp. oleifera; test: Post-emergence herbicidal activity against one-leaf stage Brassica rapa subsp. oleifera under greenhouse condition assessed as complete bleaching of leaves at 75 g /ha measured after 24 days by spray method; assay type: functional, organism-based
[4] = test system: Echinochloa crus-galli; test: Post-emergence herbicidal activity against one-leaf stage of Echinochloa crus-galli (barnyard grass) under greenhouse condition at 750 g /ha measured after 24 days by spray method; assay type: functional; conditions: 576 h, read-out: GI
[5] = test system: Brassica rapa subsp. oleifera; test: Post-emergence herbicidal activity against one-leaf stage Brassica rapa subsp. oleifera under greenhouse condition at 75 g /ha measured after 24 days by spray method; assay type: functional; conditions: 576 h, read-out: GI
[6] = test system: Amaranthus retroflexus; test: Post-emergence herbicidal activity against one-leaf stage of Amaranthus retroflexus under greenhouse condition at 750 g /ha measured after 24 days by spray method; assay type: functional; conditions: 576 h, read-out: GI
[7] = test system: Amaranthus retroflexus; test: Post-emergence herbicidal activity against one-leaf stage Amaranthus retroflexus under greenhouse condition at 300 g /ha measured after 24 days by spray method; assay type: functional; conditions: 576 h, read-out: GI
[8] = test system: Brassica rapa subsp. oleifera; test: Pre-emergence herbicidal activity against Brassica rapa subsp. oleifera under greenhouse condition at 750 g /ha measured after 24 days by spray method; assay type: functional; conditions: 576 h, read-out: GI
[9] = test system: Amaranthus retroflexus; test: Post-emergence herbicidal activity against one-leaf stage Amaranthus retroflexus under greenhouse condition assessed as complete bleaching of leaves at 300 g /ha measured after 24 days by spray method; assay type: functional, organism-based
[10] = test system: Amaranthus retroflexus; test: Post-emergence herbicidal activity against one-leaf stage Amaranthus retroflexus under greenhouse condition assessed as complete bleaching of leaves at 75 g /ha measured after 24 days by spray method; assay type: functional, organism-based
[11] = test system: Digitaria; test: Pre-emergence herbicidal activity against Digitaria adscendens under greenhouse condition at 750 g /ha measured after 24 days by spray method; assay type: functional; conditions: in Digitaria adscendens, 576 h, read-out: GI
[12] = test system: Spirodela polyrhiza; test: Bleaching herbicidal activity in Spirodela polyrhiza fronds cultured in compound-containing in medium assessed as chlorophyll inhibition at 1 ug/ml after 7 days; assay type: functional; conditions: 168 h
[13] = test system: Amaranthus retroflexus; test: Post-emergence herbicidal activity against one-leaf stage Amaranthus retroflexus under greenhouse condition at 150 g /ha measured after 24 days by spray method; assay type: functional; conditions: 576 h, read-out: GI
[14] = test system: Brassica rapa subsp. oleifera; test: Post-emergence herbicidal activity against one-leaf stage Brassica rapa subsp. oleifera under greenhouse condition at 150 g /ha measured after 24 days by spray method; assay type: functional; conditions: 576 h, read-out: GI
[15] = test system: Amaranthus retroflexus; test: Post-emergence herbicidal activity against one-leaf stage Amaranthus retroflexus under greenhouse condition assessed as complete bleaching of leaves at 600 g /ha measured after 24 days by spray method; assay type: functional, organism-based
[16] = test system: Echinochloa crus-galli; test: Pre-emergence herbicidal activity against Echinochloa crus-galli (barnyard grass) under greenhouse condition at 750 g /ha measured after 24 days by spray method; assay type: functional; conditions: 576 h, read-out: GI
[17] = test system: Brassica rapa subsp. oleifera; test: Post-emergence herbicidal activity against one-leaf stage Brassica rapa subsp. oleifera under greenhouse condition assessed as complete bleaching of leaves at 300 g /ha measured after 24 days by spray method; assay type: functional, organism-based
[18] = test system: Amaranthus retroflexus; test: Post-emergence herbicidal activity against one-leaf stage Amaranthus retroflexus under greenhouse condition at 600 g /ha measured after 24 days by spray method; assay type: functional; conditions: 576 h, read-out: GI
[19] = test system: Brassica rapa subsp. oleifera; test: Post-emergence herbicidal activity against one-leaf stage Brassica rapa subsp. oleifera under greenhouse condition at 600 g /ha measured after 24 days by spray method; assay type: functional; conditions: 576 h, read-out: GI
[20] = test system: Digitaria; test: Post-emergence herbicidal activity against one-leaf stage of Digitaria adscendens under greenhouse condition at 750 g /ha measured after 24 days by spray method; assay type: functional; conditions: in Digitaria adscendens, 576 h, read-out: GI
[21] = test system: Amaranthus retroflexus; test: Pre-emergence herbicidal activity against Amaranthus retroflexus under greenhouse condition at 750 g /ha measured after 24 days by spray method; assay type: functional; conditions: 576 h, read-out: GI
[22] = test system: Brassica rapa subsp. oleifera; test: Post-emergence herbicidal activity against one-leaf stage Brassica rapa subsp. oleifera under greenhouse condition at 750 g /ha measured after 24 days by spray method; assay type: functional; conditions: 576 h, read-out: GI
[23] = test system: Amaranthus retroflexus; test: Post-emergence herbicidal activity against one-leaf stage Amaranthus retroflexus under greenhouse condition assessed as complete bleaching of leaves at 150 g /ha measured after 24 days by spray method; assay type: functional, organism-based
[24] = test system: Brassica rapa subsp. oleifera; test: Post-emergence herbicidal activity against one-leaf stage Brassica rapa subsp. oleifera under greenhouse condition assessed as complete bleaching of leaves at 150 g /ha measured after 24 days by spray method; assay type: functional, organism-based
[25] = test system: Brassica rapa subsp. oleifera; test: Post-emergence herbicidal activity against one-leaf stage Brassica rapa subsp. oleifera under greenhouse condition assessed as complete bleaching of leaves at 600 g /ha measured after 24 days by spray method; assay type: functional, organism-based
[26] = test system: Brassica rapa subsp. oleifera; test: Post-emergence herbicidal activity against one-leaf stage Brassica rapa subsp. oleifera under greenhouse condition at 300 g /ha measured after 24 days by spray method; assay type: functional; conditions: 576 h, read-out: GI

SMILES: Cc1cc(-c2cccc(C(F)(F)F)c2)c(Oc2cccc(Br)c2)nn1
- inhibition at 10 µg/mL [1]: 79%
- inhibition of growth at 75 g/ha [2]: 38%
- Activity [3]: Active
- inhibition of growth at 750 g/ha [4]: 40%
- inhibition of growth at 75 g/ha [5]: 42%
- inhibition of growth at 750 g/ha [6]: 94%
- inhibition of growth at 300 g/ha [7]: 70%
- inhibition of growth at 750 g/ha [8]: 0%
- Activity [9]: Active
- Activity [10]: Active
- inhibition of growth at 750 g/ha [11]: 33%
- inhibition at 1 µg/mL [12]: 70%
- inhibition of growth at 150 g/ha [13]: 45%
- inhibition of growth at 150 g/ha [14]: 67%
- Activity [15]: Active
- inhibition of growth at 750 g/ha [16]: 14%
- Activity [17]: Active
- inhibition of growth at 600 g/ha [18]: 73%
- inhibition of growth at 600 g/ha [19]: 91%
- inhibition of growth at 750 g/ha [20]: 40%
- inhibition of growth at 750 g/ha [21]: 0%
- inhibition of growth at 750 g/ha [22]: 100%
- Activity [23]: Active
- Activity [24]: Active
- Activity [25]: Active
- inhibition of growth at 300 g/ha [26]: 76%

SMILES: Cc1cc(-c2cccc(C(F)(F)F)c2)c(Oc2ccc(Cl)cc2)nn1
- inhibition at 10 µg/mL [1]: 99%
- inhibition of growth at 75 g/ha [2]: 45%
- Activity [3]: Active
- inhibition of growth at 750 g/ha [4]: 78%
- inhibition of growth at 75 g/ha [5]: 65%
- inhibition of growth at 750 g/ha [6]: 94%
- inhibition of growth at 300 g/ha [7]: 86%
- inhibition of growth at 750 g/ha [8]: 97%
- Activity [9]: Active
- Activity [10]: Active
- inhibition of growth at 750 g/ha [11]: 97%
- inhibition at 1 µg/mL [12]: 72%
- inhibition of growth at 150 g/ha [13]: 84%
- inhibition of growth at 150 g/ha [14]: 71%
- Activity [15]: Active
- inhibition of growth at 750 g/ha [16]: 85%
- Activity [17]: Active
- inhibition of growth at 600 g/ha [18]: 90%
- inhibition of growth at 600 g/ha [19]: 80%
- inhibition of growth at 750 g/ha [20]: 79%
- inhibition of growth at 750 g/ha [21]: 100%
- inhibition of growth at 750 g/ha [22]: 98%
- Activity [23]: Active
- Activity [24]: Active
- Activity [25]: Active
- inhibition of growth at 300 g/ha [26]: 76%

SMILES: O=C(Nc1ccc(F)cc1F)c1cccnc1Oc1cccc(C(F)(F)F)c1 [DIFLUFENICAN]
- inhibition at 10 µg/mL [1]: 94%
- inhibition of growth at 75 g/ha [2]: 41%
- Activity [3]: Active
- inhibition of growth at 750 g/ha [4]: 67%
- inhibition of growth at 75 g/ha [5]: 44%
- inhibition of growth at 750 g/ha [6]: 100%
- inhibition of growth at 300 g/ha [7]: 74%
- inhibition of growth at 750 g/ha [8]: 71%
- Activity [9]: Active
- Activity [10]: Active
- inhibition of growth at 750 g/ha [11]: 100%
- inhibition at 1 µg/mL [12]: 90%
- inhibition of growth at 150 g/ha [13]: 70%
- inhibition of growth at 150 g/ha [14]: 88%
- Activity [15]: Active
- inhibition of growth at 750 g/ha [16]: 94%
- Activity [17]: Active
- inhibition of growth at 600 g/ha [18]: 100%
- inhibition of growth at 600 g/ha [19]: 98%
- inhibition of growth at 750 g/ha [20]: 83%
- inhibition of growth at 750 g/ha [21]: 90%
- inhibition of growth at 750 g/ha [22]: 98%
- Activity [23]: Active
- Activity [24]: Active
- Activity [25]: Active
- inhibition of growth at 300 g/ha [26]: 94%

SMILES: Cc1cc(-c2cccc(C(F)(F)F)c2)c(Oc2cc(F)cc(F)c2)nn1
- inhibition at 10 µg/mL [1]: 84%
- inhibition of growth at 75 g/ha [2]: 31%
- Activity [3]: Active
- inhibition of growth at 750 g/ha [4]: 57%
- inhibition of growth at 75 g/ha [5]: 55%
- inhibition of growth at 750 g/ha [6]: 100%
- inhibition of growth at 300 g/ha [7]: 98%
- inhibition of growth at 750 g/ha [8]: 65%
- Activity [9]: Active
- inhibition of growth at 750 g/ha [11]: 100%
- inhibition at 1 µg/mL [12]: 80%
- inhibition of growth at 150 g/ha [13]: 96%
- inhibition of growth at 150 g/ha [14]: 65%
- Activity [15]: Active
- inhibition of growth at 750 g/ha [16]: 51%
- Activity [17]: Active
- inhibition of growth at 600 g/ha [18]: 100%
- inhibition of growth at 600 g/ha [19]: 82%
- inhibition of growth at 750 g/ha [20]: 48%
- inhibition of growth at 750 g/ha [21]: 96%
- inhibition of growth at 750 g/ha [22]: 80%
- Activity [23]: Active
- Activity [24]: Active
- Activity [25]: Active
- inhibition of growth at 300 g/ha [26]: 78%

SMILES: Cc1cccc(Oc2nnc(C)cc2-c2cccc(C(F)(F)F)c2)c1
- inhibition at 10 µg/mL [1]: 84%
- inhibition of growth at 75 g/ha [2]: 29%
- Activity [3]: Active
- inhibition of growth at 750 g/ha [4]: 40%
- inhibition of growth at 75 g/ha [5]: 46%
- inhibition of growth at 750 g/ha [6]: 55%
- inhibition of growth at 300 g/ha [7]: 38%
- inhibition of growth at 750 g/ha [8]: 3%
- Activity [9]: Active
- inhibition of growth at 750 g/ha [11]: 43%
- inhibition at 1 µg/mL [12]: 79%
- inhibition of growth at 150 g/ha [13]: 34%
- inhibition of growth at 150 g/ha [14]: 51%
- Activity [15]: Active
- inhibition of growth at 750 g/ha [16]: 29%
- Activity [17]: Active
- inhibition of growth at 600 g/ha [18]: 43%
- inhibition of growth at 600 g/ha [19]: 70%
- inhibition of growth at 750 g/ha [20]: 81%
- inhibition of growth at 750 g/ha [21]: 0%
- inhibition of growth at 750 g/ha [22]: 100%
- Activity [23]: Active
- Activity [24]: Active
- Activity [25]: Active
- inhibition of growth at 300 g/ha [26]: 63%
